tested on: caspase-3 activity in PC-3 cells; assay: Caspase-3 colorimetric activity assay, PC-3; type: cell-based, human; details: PC-3, all time points, inhibitor control
Procedure: (§1) Caspase-3 activity was determined using the caspase-3 colorimetric assay kit (Sigma-Aldrich) according to manufacturer’s protocol. The assay is based on spectrophotometric detection of p-nitroanilide (pNA) a colored molecule, after its cleavage from the labeled substrate DEVD-pNA by the activity of caspase-3 enzyme. PC-3 and DU 145 cells were treated with MS17 at different concentrations (EC50, 2 × EC50, 3 × EC50) at various time points, 6, 12, 24, 48 and 72 h as appropriate. Following treatment, cells were washed with PBS and suspended with lysis buffer (50 mM HEPES, pH 7.4, 5 mM CHAPS, 5 mM DTT) for 30 min on ice at the concentration of 10^7 cells per 100 µL buffer. Cells were then spun for 30 min at 16,000× g, 4 °C. Protein lysate concentrations were measured based on the Bradford assay method using the Cayman Chemical protein determination kit (Cayman Chemical Company, Ann Arbor, MI, USA) based on the manufacturer’s protocol. Assay was performed on a 96-well micro-titer plate by adding equal amount of protein lysate (~100 µg) into wells containing the assay buffer (20 mM HEPES pH 7.4, 0.1% CHAPS, 5 mM DTT, 2 mM EDTA). Reaction was started by the addition of 10 µL of substrate Ac-DEVD-pNA (2 mM). The effect of Ac-DEVD-CHO, a caspase-3 inhibitor was also studied simultaneously on caspase-3 activity. Ten microliter of the inhibitor (200 µM) was added into the wells containing the protein lysate, assay buffer and the substrate. Caspase-3 activity was measured upon the release of pNA molecule, a pale yellow colored product using the micro-plate ELISA reader (Bio-Rad) at the wavelength of 405 nm. Relative caspase-3 activity was expressed as absorbance of enzyme activity compared with the control (untreated cells/DMSO only) based on the equation below: Relative caspase 3 activity= Absorbance of treated cells /Absorbance of control

| Compound | relative caspase-3 activity with caspase-3 inhibitor |
| --- | --- |
| Ac-DEVD-CHO [reference compound] | relatively low expression levels |

tested on: DU 145 cells; assay: MTT cytotoxicity (cell viability) assay, DU 145; type: cell-based, human; details: DU 145, MTT, vs untreated
Procedure: (§2) Cell viability was determined by the MTT [3-(4,5-dimethylthiazol-2-yl)-2,5-diphenyltetrazolium bromide] assay, as previously described by Mosmann with modifications. Briefly, cells were detached from the tissue culture flask and pelleted by centrifugation at 1000 rpm for 5 min. Then, the density of the viable cells was counted using a haemocytometer. Cells were then plated in a 96-well flat bottom micro-titer plate (Nunc) at a concentration of 10^4 cells/mL and incubated in a 5% CO2 incubator at 37 °C overnight to allow the cells to adhere to the bottom of the wells. After 24 h, the media was aspirated off and replaced with fresh media containing sample compounds (curcumin and curcumin analogues) of seven different concentrations ranging from 1.56 µM–100 µM and incubated at 37 °C, 5% CO2 for 72 h. Separately, the sample compounds were prepared in a stock solution of 50 mM in 100% dimethyl sulfoxide (DMSO, Molecular Biology Grade, Sigma-Aldrich, St. Louis, MO, USA) and diluted in the culture media to a working concentration of 200 µM. Curcumin, the parent compound which was used as the positive control was also prepared in the similar manner. A two-fold serial dilution was done for each sample in triplicates down the columns of the plate, yielding a final volume and concentration of 100 µL in 0.2% DMSO in each wells. Following treatment, 50 µL MTT solutions (0.5 mg/mL in PBS) was added to each well and incubated for another 4 h at 37 °C in a humidified 5% CO2 incubator. The supernatant was replaced with 100 µL of DMSO and the optical density (OD) was measured at 570/650 nm using a micro-plate ELISA reader (Bio-Rad Laboratories, Hercules, CA, USA). The percentage of viable cells was calculated based on the ratio of the corrected absorbance of sample-treated cells to the corrected absorbance of the control (0.2% DMSO-treated cells) multiplied by 100. The percentage of cell viability was determined as follows: % Cell viability= OD of treated cells /OD of control ×100
(§3) For each compound tested, the EC50 value was generated from the log dose-response curves for each cell line using the Graphpad Prism version 5.04 for Windows (Graphpad Software, La Jolla, CA, USA). […] Cytotoxicity of each tested compound is expressed as the EC50 value. Based on the EC50 values, selectivity index (SX) value was also determined. Selectivity index is a special parameter applied as a selectivity indicator of tested compounds towards cancer cells. The SX represents the ratio of EC50 value obtained in toxicity testing using the normal cell lines to the EC50 values of the toxicity testing of the cancer cells, and then multiplied by 100. All the compounds were assessed for their potential toxicity against normal, non-cancerous cells. […] The SX values were calculated using the following equation: SX = EC50 (normal cells)/EC50 (cancer cells) × 100

| Compound | dose from which decrease in cell viability is significant |
| --- | --- |
| O=C(C=Cc1cccc(F)c1)C=Cc1cccc(F)c1 [MS40E, 1,5-bis(3-fluorophenyl)-1,4-pentadiene-3-one] | 50 µM |

same assay, conditions: Homo sapiens, DU-145; MTT, 72 h treatment, mean ± SD, three experiments; read-out: EC50 Values (µM) of Compounds on Cell Lines DU 145

| Compound | EC50 |
| --- | --- |
| O=C(C=Cc1cccc(F)c1)C=Cc1cccc(F)c1 [MS40E, 1,5-bis(3-fluorophenyl)-1,4-pentadiene-3-one] | 30.3 ± 1.9 µM |

same assay, conditions: SX = EC50 (WI-38)/EC50 (DU 145) × 100

| Compound | Selective index (SX) WI-38 vs DU 145 |
| --- | --- |
| O=C(C=Cc1cccc(F)c1)C=Cc1cccc(F)c1 [MS40E, 1,5-bis(3-fluorophenyl)-1,4-pentadiene-3-one] | 93.5 |

same assay, conditions: SX = EC50 (WRL68)/EC50 (DU 145) × 100

| Compound | Selective index (SX) WRL68 vs DU 145 |
| --- | --- |
| O=C(C=Cc1cccc(F)c1)C=Cc1cccc(F)c1 [MS40E, 1,5-bis(3-fluorophenyl)-1,4-pentadiene-3-one] | 100.0 |

tested on: WI-38 (human lung fibroblast cells); assay: MTT cytotoxicity assay, normal WI-38; type: cell-based; details: normal cell line, 72 h treatment, mean ± SD, read-out: EC50 Values (µM) of Compounds on Cell Lines WI-38
Procedure: as §2, §3

| Compound | EC50 |
| --- | --- |
| O=C(C=Cc1cccc(F)c1)C=Cc1cccc(F)c1 [MS40E, 1,5-bis(3-fluorophenyl)-1,4-pentadiene-3-one] | 28.4 ± 1.7 µM |

tested on: PC-3 cells; assay: BrdU cell proliferation assay, PC-3; type: cell-based, human; details: PC-3, BrdU, 24 h
Procedure: (§4) The anti-proliferative effects of compound on treated cells, was measured using the BrdU cell proliferation assay kit (Roche Applied Science Diagnostics, Indianapolis, IN, USA) according to the manufacturer’s protocol. The assay was based on incorporation of BrdU during DNA synthesis in proliferating cells. Cells were plated at a concentration of 10^4 cells/mL in a 96-well microtiter plate and incubated overnight. The cells were treated with compounds and curcumin (concentrations ranging from 1.56 µM–100 µM) as positive control for 24, 48 and 72 h respectively. Then, BrdU labeling solution (5 µL, diluted by 1/100 in culture media) was added to each well and incubated for 2 h at 37 °C. The media was replaced with fix/denaturing solution (100 µL) and incubated for 30 min at room temperature. Then, the fix/denaturing solution was removed by tapping off and followed by addition of 50 µL anti-BrdU antibody (50 µL, diluted by 1/100 in dilution buffer) to each well and further incubated for another 90 min at room temperature. Next, the cells were washed 3 times with wash buffer and substrate solution (50 µL) was added to each well. The plate was left for 10 min at room temperature in the dark and the absorbance was measured at a wavelength of 370 nm with a reference wavelength of 492 nm using a micro-plate ELISA reader (Bio-Rad). The percentage of BrdU incorporation was determined based on the ratio of absorbance of sample treated-cells to absorbance of control (untreated cells/DMSO only) multiplied by 100.

| Compound | concentration from which anti-proliferative activity is significant |
| --- | --- |
| O=C(C=Cc1cccc(F)c1)C=Cc1cccc(F)c1 [MS40E, 1,5-bis(3-fluorophenyl)-1,4-pentadiene-3-one] | 50 µM |

same assay, conditions: PC-3, BrdU, 48 h

| Compound | concentration from which anti-proliferative activity is significant |
| --- | --- |
| O=C(C=Cc1cccc(F)c1)C=Cc1cccc(F)c1 [MS40E, 1,5-bis(3-fluorophenyl)-1,4-pentadiene-3-one] | 50 µM |

same assay, conditions: PC-3, BrdU, 72 h

| Compound | concentration from which anti-proliferative activity is significant |
| --- | --- |
| O=C(C=Cc1cccc(F)c1)C=Cc1cccc(F)c1 [MS40E, 1,5-bis(3-fluorophenyl)-1,4-pentadiene-3-one] | 50 µM |

tested on: WRL 68 (human epithelial hepatocytes); assay: MTT cytotoxicity assay, normal WRL 68; type: cell-based; details: WRL68, normal cell line, 72 h treatment, mean ± SD, read-out: EC50 Values (µM) of Compounds on Cell Lines WRL-68
Procedure: as §2, §3

| Compound | EC50 |
| --- | --- |
| O=C(C=Cc1cccc(F)c1)C=Cc1cccc(F)c1 [MS40E, 1,5-bis(3-fluorophenyl)-1,4-pentadiene-3-one] | 30.3 ± 2 µM |

tested on: PC-3 cells; assay: MTT cytotoxicity (cell viability) assay, PC-3; type: cell-based, human; details: Homo sapiens, PC-3; MTT, 72 h treatment, mean ± SD, three experiments; read-out: EC50 Values (µM) of Compounds on Cell Lines PC-3
Procedure: as §2, §3

| Compound | EC50 |
| --- | --- |
| O=C(C=Cc1cccc(F)c1)C=Cc1cccc(F)c1 [MS40E, 1,5-bis(3-fluorophenyl)-1,4-pentadiene-3-one] | 28 ± 7.8 µM |

same assay, conditions: PC-3, MTT, vs untreated

| Compound | dose from which decrease in cell viability is significant |
| --- | --- |
| O=C(C=Cc1cccc(F)c1)C=Cc1cccc(F)c1 [MS40E, 1,5-bis(3-fluorophenyl)-1,4-pentadiene-3-one] | 50 µM |

same assay, conditions: SX = EC50 (WI-38)/EC50 (PC-3) × 100

| Compound | Selective index (SX) WI-38 vs PC-3 |
| --- | --- |
| O=C(C=Cc1cccc(F)c1)C=Cc1cccc(F)c1 [MS40E, 1,5-bis(3-fluorophenyl)-1,4-pentadiene-3-one] | 101.4 |

same assay, conditions: SX = EC50 (WRL68)/EC50 (PC-3) × 100

| Compound | Selective index (SX) WRL68 vs PC-3 |
| --- | --- |
| O=C(C=Cc1cccc(F)c1)C=Cc1cccc(F)c1 [MS40E, 1,5-bis(3-fluorophenyl)-1,4-pentadiene-3-one] | 108.3 |

tested on: caspase-3 activity in DU 145 cells; assay: Caspase-3 colorimetric activity assay, DU 145; type: cell-based, human; details: DU 145, all time points, inhibitor control
Procedure: as §1

| Compound | relative caspase-3 activity with caspase-3 inhibitor |
| --- | --- |
| Ac-DEVD-CHO [reference compound] | relatively low expression levels |

tested on: DU 145 cells; assay: BrdU cell proliferation assay, DU 145; type: cell-based, human; details: DU 145, BrdU, 24 h
Procedure: as §4

| Compound | concentration from which anti-proliferative activity is significant |
| --- | --- |
| O=C(C=Cc1cccc(F)c1)C=Cc1cccc(F)c1 [MS40E, 1,5-bis(3-fluorophenyl)-1,4-pentadiene-3-one] | 50 µM |

same assay, conditions: DU 145, BrdU, 48 h

| Compound | concentration from which anti-proliferative activity is significant |
| --- | --- |
| O=C(C=Cc1cccc(F)c1)C=Cc1cccc(F)c1 [MS40E, 1,5-bis(3-fluorophenyl)-1,4-pentadiene-3-one] | 50 µM |

same assay, conditions: DU 145, BrdU, 72 h

| Compound | concentration from which anti-proliferative activity is significant |
| --- | --- |
| O=C(C=Cc1cccc(F)c1)C=Cc1cccc(F)c1 [MS40E, 1,5-bis(3-fluorophenyl)-1,4-pentadiene-3-one] | 50 µM |
